Test results from ChEMBL document CHEMBL1240505, “Studies on preparation and photodynamic mechanism of chlorin P6-13,15-N-(cyclohexyl)cycloimide (Chlorin-H) and its antitumor effect for photodynamic therapy in vitro and in vivo” (Bioorg Med Chem, 2010).
The source made the active and inactive calls. The rule behind the calls is not given here.

How the values were obtained:
[1] = system: A549; assay: Inhibition of cell invasion in human A549 cells assessed as invasion index at 4 uM after 72 hrs followed by irradiated with light dose 0.18 J/cm2 relative to control; assay type: functional; conditions: A549, light or radiation study
[2] = system: A549; assay: Induction of apoptosis in human A549 cells assessed as apoptotic cells at 4 uM after 24 hrs using annexin-V-PE/7-AAD double staining by flow cytometry; assay type: functional
[3] = system: A549; assay: Induction of apoptosis in human A549 cells assessed as dying mitochondrial membrane depolarized cells at 4 uM after 24 hrs using JC-1 staining by flow cytometry; assay type: functional
[4] = system: A549; assay: Antitumor activity against human A549 cells xenografted in nude BALB/C mouse assessed as dark tumor at 8 uM after 24 hrs followed by irradiated with light dose 78 J/cm2 measured after 10 days; assay type: functional, cell-based
[5] = system: SW480; assay: Cytotoxicity against human SW480 cells assessed as cell death at 4 uM after 24 hrs followed by irradiated with light dose 0.18 J/cm2 by MTT assay; assay type: functional, cell-based
[6] = system: A549; assay: Antiproliferative activity against human A549 cells assessed as reduction of colony formation at 4 uM irradiated with light dose 0.18 J/cm2 for 14 days before compound challenge measured after 24 hrs using giemsa staining by microscopic analysis; assay type: functional, cell-based
[7] = system: A549; assay: Cytotoxicity against human A549 cells assessed as cell death at 4 uM after 24 hrs followed by irradiated with light dose 0.18 J/cm2 by MTT assay; assay type: functional, cell-based
[8] = system: A549; assay: Induction of apoptosis in human A549 cells assessed as late apoptotic cells at 4 uM after 24 hrs followed by irradiated with light dose 0.18 J/cm2 using annexin-V-PE/7-AAD double staining by flow cytometry; assay type: functional
[9] = system: A549; assay: Induction of apoptosis in human A549 cells assessed as apoptotic cells at 4 uM after 24 hrs using annexin-V FITC/PI double staining by flow cytometry; assay type: functional
[10] = system: A549; assay: Antitumor activity against human A549 cells xenografted in nude BALB/C mouse assessed as dry tumor at 8 uM after 24 hrs followed by irradiated with light dose 78 J/cm2 measured after 10 days; assay type: functional, cell-based
[11] = system: AGS; assay: Cytotoxicity against human AGS cells assessed as cell death at 4 uM after 24 hrs followed by irradiated with light dose 0.18 J/cm2 by MTT assay; assay type: functional, cell-based
[12] = system: A549; assay: Induction of apoptosis in human A549 cells transfected with lentivirus TNFSF13-siRNA assessed as cell survival at 4 uM after 24 hrs followed by irradiated with light dose 0.18 J/cm2 by MTT assay; assay type: functional; conditions: A549, light or radiation study, read-out: Activity
[13] = system: A549; assay: Induction of apoptosis in human A549 cells assessed as apoptotic cells at 4 uM after 24 hrs followed by irradiated with light dose 0.18 J/cm2 using annexin-V FITC/PI double staining by flow cytometry; assay type: functional
[14] = Drug uptake in human U87 cell mitochondria by using Hoechst 33258 staining; assay type: ADME; conditions: u-87mg atcc
[15] = system: A549; assay: Induction of apoptosis in human A549 cells transfected with lentivirus p53-siRNA assessed as reduction of p53 mRNA level at 4 uM after 24 hrs followed by irradiated with light dose 0.18 J/cm2 by MTT assay; assay type: functional; design: scale not given: the % may be the effect or the level left
[16] = Drug uptake in human U87 cell nucleus by using Hoechst 33258 staining; assay type: ADME, cell-based; conditions: u-87mg atcc
[17] = system: A549; assay: Antitumor activity against human A549 cells xenografted in nude BALB/C mouse assessed as hardened tumor at 8 uM after 24 hrs followed by irradiated with light dose 78 J/cm2 measured after 10 days; assay type: functional, cell-based
[18] = system: A549; assay: Cell cycle arrest in human A549 cells assessed as accumulation at S phase at 4 uM after 24 hrs followed by irradiated with light dose 0.18 J/cm2 by flow cytometry; assay type: functional
[19] = system: A549; assay: Induction of apoptosis in human A549 cells assessed as pre-necrotic cells at 4 uM after 24 hrs followed by irradiated with light dose 0.18 J/cm2 using annexin-V-PE/7-AAD double staining by flow cytometry; assay type: functional
[20] = system: A549; assay: Induction of apoptosis in human A549 cells assessed as viable cells at 4 uM after 24 hrs using annexin-V FITC/PI double staining by flow cytometry; assay type: functional; conditions: A549, 24 h, read-out: Activity
[21] = system: A549; assay: Induction of apoptosis in human A549 cells assessed as late apoptotic cells at 4 uM after 24 hrs using annexin-V FITC/PI double staining by flow cytometry; assay type: functional
[22] = system: A549; assay: Inhibition of cell invasion in human A549 cells assessed as invasion index at 4 uM after 72 hrs relative to control; assay type: functional; conditions: A549, 72 h
[23] = system: A549; assay: Induction of apoptosis in human A549 cells assessed as late apoptotic mitochondrial membrane depolarized cells at 4 uM after 24 hrs using JC-1 staining by flow cytometry; assay type: functional
[24] = system: SGC-7901; assay: Cytotoxicity against human SGC7901 cells assessed as cell death at 4 uM after 24 hrs followed by irradiated with light dose 0.18 J/cm2 by MTT assay; assay type: functional, cell-based
[25] = system: A549; assay: Induction of apoptosis in human A549 cells assessed as pre-necrotic cells at 4 uM after 24 hrs using annexin-V FITC/PI double staining by flow cytometry; assay type: functional
[26] = system: A549; assay: Induction of apoptosis in human A549 cells transfected with lentivirus Smac-siRNA assessed as cell survival at 4 uM after 24 hrs followed by irradiated with light dose 0.18 J/cm2 by MTT assay; assay type: functional; conditions: A549, light or radiation study, read-out: Activity
[27] = system: A549; assay: Induction of apoptosis in human A549 cells assessed as pre-necrotic cells at 4 uM after 24 hrs followed by irradiated with light dose 0.18 J/cm2 using annexin-V FITC/PI double staining by flow cytometry; assay type: functional
[28] = system: A549; assay: Induction of apoptosis in human A549 cells assessed as upregulation of XIAP mRNA expression at 4 uM after 24 hrs followed by irradiated with light dose 0.18 J/cm2 by RT-PCR analysis; assay type: functional, cell-based
[29] = system: A549; assay: Induction of apoptosis in human A549 cells assessed as viable cells at 4 uM after 24 hrs using annexin-V-PE/7-AAD double staining by flow cytometry; assay type: functional; conditions: A549, 24 h, read-out: Activity
[30] = system: A549; assay: Induction of apoptosis in human A549 cells assessed as late apoptotic cells at 4 uM after 24 hrs followed by irradiated with light dose 0.18 J/cm2 using annexin-V FITC/PI double staining by flow cytometry; assay type: functional

C=Cc1c(C)c2cc3nc(c4c5[nH]c(cc6nc(cc1[nH]2)C(C)=C6CC)c(C)c5C(=O)N(C1CCCCC1)C4=O)[C@@H](CCC(=O)O)[C@@H]3C
inhibition at 4 µM [1]: 15.7% | Activity [2]: 2.96% | Activity [3]: 9.35% | Activity [4]: Active | Activity [5]: Active | Activity [6]: Active | Activity [7]: Active | Activity [8]: 27.71% | Activity [9]: 0.99% | Activity [10]: Active | Activity [11]: Active | viability at 4 µM [12]: 72.1% | Activity [13]: 74.24% | Drug uptake [14]: Active | Activity [15]: 60% | Drug uptake [16]: Active | Activity [17]: Active | Activity [18]: 21.56% | Activity [19]: 7.63% | viability at 4 µM [20]: 92.3% | Activity [21]: 3.03% | inhibition at 4 µM [22]: 76.4% | Activity [23]: 88.88% | Activity [24]: Active | Activity [25]: 0.24% | viability at 4 µM [26]: 24.5% | Activity [27]: 0.4% | Activity [28]: Active | viability at 4 µM [29]: 91% | Activity [30]: 23.28%
